Results as given in ChEMBL document CHEMBL1130050, “Novel conformationally extended naphthalene-based inhibitors of farnesyltransferase” (J Med Chem, 1997).
pIC50: −log10 of the molar value. Square brackets hold non-standard residues; d marks the D form. Peptide text beside a SMILES is read from it. Tic = O=C(O)[C@@H]1Cc2ccccc2CN1; NMeM = CN[C@@H](CCSC)C(=O)O; NMeV = CN[C@H](C(=O)O)C(C)C; Nle = CCCC[C@H](N)C(=O)O

Key:
[1] = molecular target: T1, Protein farnesyltransferase (Homo sapiens, UniProt P49354+P49356); assay: Percent inhibition of Ha-Ras protein processing in THAC (Ha-ras-transformed CCL39) cells at 10 uM; format: functional
[2] = molecular target: T1, Protein farnesyltransferase; assay: Inhibition of [3H]FPP incorporation into human Ha-Ras by farnesyltransferase; format: protein-complex assay
[3] = molecular target: T1, Protein farnesyltransferase; assay: Ratio of FTase IC50 values compared to compound 5; format: protein-complex assay
[4] = molecular target: T1, Protein farnesyltransferase; assay: Ratio of FTase IC50 values compared to compound 8; format: protein-complex assay
[5] = molecular target: T1, Protein farnesyltransferase; assay: Inhibition of [3H]FPP incorporation into human Ki-Ras by farnesyltransferase; format: protein-complex assay

inhibition [1] [%] | pIC50 [2] | Ratio [3] | Compound | also measured
20 | 6.49 | 58 | COC(=O)[C@H](CCSC)NC(=O)c1cccc2c(NC[C@@H](N)CS)cccc12 | –
– | – | 0.9 | CSCC[C@H](/N=C(\S)c1cccc2c(NC[C@@H](N)CS)cccc12)C(=O)O | –
0 | – | – | CSCC[C@H](NC(=O)[C@@H]1Cc2ccccc2CN1C(=O)[C@H](C(C)C)N(C)C(=O)[C@@H](N)CS)C(=O)O (H-C[NMeV][Tic]M-OH) | –
– | – | – | CSCC[C@H](NC[C@H](Cc1ccccc1)NC(=O)[C@@H](NC(=O)[C@@H](N)CS)C(C)C)C(=O)O | Ratio [4]: 60
– | – | – | CSCC[C@H](/N=C(\S)[C@H](Cc1ccccc1)NC(=O)[C@@H](NC(=O)[C@@H](N)CS)C(C)C)C(=O)O | Ratio [4]: 0.5
> 50 | – | – | COC(=O)[C@H](CCSC)NC(=O)c1cccc2cc(NC[C@@H](N)CS)ccc12 | pIC50 [5]: 6.30
10 | – | – | CSCC[C@H](NC(=O)c1cccc2cc(NC[C@@H](N)CS)ccc12)C(=O)O | pIC50 [5]: 7.76
– | 6.02 | – | CCCC[C@H](NC(=O)[C@H](Cc1ccccc1)NC(=O)[C@@H](NC(=O)[C@@H](N)CS)C(C)C)C(=O)O (H-CVF[Nle]-OH) | Ratio [4]: 26
0 | – | – | CSCC[C@H](NC(=O)c1cccc2c(NC(=O)[C@@H](N)CS)cccc12)C(=O)O | –
0 | – | 1 | CSCC[C@H](NC(=O)c1cccc2c(NC[C@@H](N)CS)cccc12)C(=O)O | –
– | 5.47 | – | COC(=O)[C@H](CCSC)NC(=O)[C@H](Cc1ccccc1)NC(=O)[C@@H](NC(=O)[C@@H](N)CS)C(C)C (H-CVFM-OMe) | Ratio [4]: 92
– | 7.22 | – | CSCC[C@H](NC(=O)c1cccc2cc(NC(=O)[C@@H](N)CS)ccc12)C(=O)O | pIC50 [5]: 5.90
– | 7.36 | 8 | CCCC[C@H](NC(=O)c1cccc2c(NC[C@@H](N)CS)cccc12)C(=O)O | –
– | 5.85 | – | CSCC[C@@H](C(=O)O)N(C)C(=O)[C@H](Cc1ccccc1)NC(=O)[C@@H](NC(=O)[C@@H](N)CS)C(C)C (H-CVF[NMeM]-OH) | Ratio [4]: 38
– | 6.68 | 37.5 | CSCC[C@@H](C(=O)O)N(C)C(=O)c1cccc2c(NC[C@@H](N)CS)cccc12 | –
– | – | 54 | CSCC[C@H](NCc1cccc2c(NC[C@@H](N)CS)cccc12)C(=O)O | –
– | 8.32 | – | CSCC[C@H](NC(=S)c1cccc2c(NC[C@@H](N)CS)cccc12)C(=O)O | –
– | 7.77 | – | CSCC[C@H](NC(=S)[C@H](Cc1ccccc1)NC(=O)[C@@H](NC(=O)[C@@H](N)CS)C(C)C)C(=O)O | –
